One assay concerns the target T1, GABAA receptors (α5β2γ2) (Homo sapiens, UniProt P18507+P31644).
T1 construct: expressed in transfected cells; host or cells: oocytes injected with a mix of alpha, beta and gamma cDNA (1:1:10 by weight)
In words: Positive allosteric modulator activity, potentiation of EC20 GABA current in oocytes. Type of assay: cell-based. The settings on record: read-out: GABA α5 functional potentiation. As for the experimental part:
On day 1, 1 ng/32 nL of GABAA […] cDNA was injected into one oocyte. Test starts on day 2. The cDNA injected to the oocytes was a mix of alpha, beta and gamma, their ratio is 1:1:10 (by weight) and the total weight of the mixed 3 subunits to be injected in one oocyte was 1 ng in 32 nl volume. The injected oocytes can also be tested on day 3. In such case, the cDNA amount injected to the oocytes should be reduced by 20%.
1). 8 oocytes were placed in 8 chambers of OpusXpress and superfused with Modified Barth's Saline (MBS) at 3 mL/min. Glass electrodes back-filled with 3M KCl (0.5-3 megaohms) were used.
3). […] Oocytes were washed with MBS for 5-10 min.
2). […] Divide Itest by IGABA to obtain potentiation (%).
3). Discard all tested oocytes, new oocytes were used and the above steps 1) and 2) were repeated to test second concentration of the same compound. Each oocyte was used for only one concentration test for a single test compound. The steps were repeated for other test compounds.

For the next assay, the target named is T2, α5β3γ2 GABAA receptors (Homo sapiens, UniProt P18507+P31644).
T2 construct: membranes
As to the kind of experiment: Binding activity of test compounds on GABAAR ([3H]Ro15-1788 inhibition, Ltk cell membranes). As for the experimental part: The binding was performed on Ltk cells stably expressing GABAA receptors: α1β1γ2, α2β3γ2, α3β3γ2 and α5β3γ2 (provided by Merck Co., NJ, USA). Cells were seeded in 100 mm culture plates in DMEM/F12 medium containing 10% serum and antibiotics in 5% C02 and allowed to grow for 1-2 days. GABAAR expression was then induced by dexamethasone as follows: 0.5 μM for 1 day for α5 containing and 2 μM for 3 days for α1, α2 and α3 containing GABAARs. After induction, cells were collected by scraping into Dulbecco's Phosphate buffered saline (DPBS, pH 7.4, Invitrogen, Carlsbad, Calif., USA) and centrifuged at 150×g for 10 min. The pellet was washed twice by re-suspension and centrifugation. The cell pellets from at least 5 different preps were combined, suspended in the binding assay buffer (50 mM KH2PO4; 1 mM EDTA; 0.2 M KCl, pH 7.4) and membranes prepared by sonication (3-5 times, 30 sec) using Branson Sonifier 150 (G.Heinmann, Germany). Protein content was determined using BCA assay (Bio-Rad Labs, Reinach, Switzerland) with Bovine Serum Albumin (Sigma Aldrich, St. Louis, Mo., USA) as the standard. Aliquots were prepared and stored at −20° C. for further use in binding assays.
Saturation binding curves were obtained by incubating membranes with increasing concentrations (0.01-8 nM) of [^3H]Ro15-1788 (Flumazepil, 75-85 Ci/mmol, PerkinElmer, MA, USA), with nonspecific binding measured in the presence of 10 μM diazepam.
All binding assays were performed for 1 h at 4° C. in assay buffer. The total assay volume was 0.5 ml containing 0.2 mg/ml protein for α5 and 0.4 mg/ml for α1, α2, and α3 containing GABAAR membranes. Incubations were terminated by filtration through GF/B filters using a 24-Cell Harvestor (Brandel, Gaithersburg, Md., USA) followed by 3 washes with ice-cold assay buffer. Filters were transferred to scintillation vials, 5 ml scintillation liquid added, vortex-mixed and kept in dark. Next day, radioactivity was obtained using a scintillation counter (Beckman Coulter, Brea, Calif., USA). All assays were performed in triplicate.
Saturation and inhibition curves were obtained using GraphPad Prism software (GraphPad Software, Inc., CA, USA).

Molecules are shown by their SMILES.

T1 sequence (P31644 32-462): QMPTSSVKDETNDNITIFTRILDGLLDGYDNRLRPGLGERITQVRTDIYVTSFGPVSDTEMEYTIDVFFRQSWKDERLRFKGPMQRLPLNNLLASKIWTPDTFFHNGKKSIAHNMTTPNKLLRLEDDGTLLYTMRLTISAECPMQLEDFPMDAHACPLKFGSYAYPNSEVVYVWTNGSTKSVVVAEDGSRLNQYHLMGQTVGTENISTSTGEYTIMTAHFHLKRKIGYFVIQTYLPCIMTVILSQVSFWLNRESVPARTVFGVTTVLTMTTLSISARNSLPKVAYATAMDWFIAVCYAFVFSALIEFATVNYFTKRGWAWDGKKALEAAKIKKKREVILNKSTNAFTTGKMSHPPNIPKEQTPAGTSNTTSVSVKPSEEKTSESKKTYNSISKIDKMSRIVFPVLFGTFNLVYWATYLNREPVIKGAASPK
T1 sequence (P47870 25-512 partner limits assumed): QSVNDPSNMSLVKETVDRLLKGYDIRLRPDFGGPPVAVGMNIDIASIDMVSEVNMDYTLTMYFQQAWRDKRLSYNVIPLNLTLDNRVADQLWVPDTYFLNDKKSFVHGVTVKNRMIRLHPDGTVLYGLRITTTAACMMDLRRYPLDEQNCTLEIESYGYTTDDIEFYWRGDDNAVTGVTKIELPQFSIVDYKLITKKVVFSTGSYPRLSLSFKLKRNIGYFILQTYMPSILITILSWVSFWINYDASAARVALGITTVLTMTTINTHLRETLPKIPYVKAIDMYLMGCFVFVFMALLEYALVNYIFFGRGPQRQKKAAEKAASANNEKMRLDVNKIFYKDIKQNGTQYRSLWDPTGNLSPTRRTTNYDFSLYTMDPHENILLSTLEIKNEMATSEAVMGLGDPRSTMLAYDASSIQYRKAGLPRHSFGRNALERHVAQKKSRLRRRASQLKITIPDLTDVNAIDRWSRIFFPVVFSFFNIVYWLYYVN
T1 sequence (P18507 40-475): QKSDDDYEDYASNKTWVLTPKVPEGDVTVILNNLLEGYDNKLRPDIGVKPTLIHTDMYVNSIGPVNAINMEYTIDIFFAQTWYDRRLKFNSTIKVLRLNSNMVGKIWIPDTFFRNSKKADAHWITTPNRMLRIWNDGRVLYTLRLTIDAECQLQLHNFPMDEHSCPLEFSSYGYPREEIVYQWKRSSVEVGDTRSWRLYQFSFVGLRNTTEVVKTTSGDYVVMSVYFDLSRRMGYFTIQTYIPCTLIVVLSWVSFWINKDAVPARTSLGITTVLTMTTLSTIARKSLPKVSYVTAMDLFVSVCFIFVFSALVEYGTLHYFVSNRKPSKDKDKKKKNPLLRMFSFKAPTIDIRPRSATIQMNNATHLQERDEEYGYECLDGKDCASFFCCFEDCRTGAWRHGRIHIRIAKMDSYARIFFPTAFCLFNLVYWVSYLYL
T2 sequence (P31644 32-462): as the sequence (P31644 32-462) above
T2 sequence (P28472 26-473 partner): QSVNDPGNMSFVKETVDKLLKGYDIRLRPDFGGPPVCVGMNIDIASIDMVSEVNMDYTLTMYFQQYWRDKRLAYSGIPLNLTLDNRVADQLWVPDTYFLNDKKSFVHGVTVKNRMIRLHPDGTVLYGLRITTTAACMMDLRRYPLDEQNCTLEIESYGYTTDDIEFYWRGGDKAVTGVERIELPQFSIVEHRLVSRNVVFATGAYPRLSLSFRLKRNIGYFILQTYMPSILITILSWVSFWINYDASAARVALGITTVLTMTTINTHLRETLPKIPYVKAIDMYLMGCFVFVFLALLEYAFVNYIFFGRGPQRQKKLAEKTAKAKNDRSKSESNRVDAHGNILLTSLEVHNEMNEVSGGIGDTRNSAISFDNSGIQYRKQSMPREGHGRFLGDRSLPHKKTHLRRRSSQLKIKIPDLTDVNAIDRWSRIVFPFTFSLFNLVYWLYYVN
T2 sequence (P18507 40-475): as the sequence (P18507 40-475) above

Usually Ki stands for the equilibrium dissociation constant of an inhibitor or competing ligand from its target. For `COc1ccc2c(c1)-c1nnc(COc3ccccc3)n1Cc1c(C(=O)OC(C)C)ncn1-2` [Compound 120], the activation at 0.1 µM at GABAA receptors (α5β2γ2) is 20 to 49%. Also, the Ki at α5β3γ2 GABAA receptors is < 99 nM.
For `COCc1nnc2n1Cc1c(-c3nc(C)no3)ncn1-c1ccc(OC)cc1-2` [Compound 128], in that order: 20 to 49% and < 99 nM.
As to `N#Cc1ncn2c1Cn1c(COc3ccccc3)nnc1-c1cc(F)ccc1-2` [Compound 157], on α5β3γ2 GABAA receptors, the Ki was < 99 nM.
The same measure, in the same setting: the value for `COc1ccc2c(c1)-c1nnc(COCc3ccccc3)n1Cc1c(-c3noc(C)n3)ncn1-2` [Compound 165] was < 99 nM; that for `Cc1nnn2c1Cc1c(-c3noc(C(F)(F)F)n3)ncn1-c1ccc(F)cc1-2` [Compound 150] was < 99 nM.
As for `Cc1nnn2c1Cc1c(C(=O)OCC(C)(C)C)ncn1-c1ccc(F)cc1-2` [Compound 113], the activation at 0.1 µM on GABAA receptors (α5β2γ2) was > 50%.
Turning to `COc1ccc2c(c1)-c1nnc(COCc3ccccc3)n1Cc1c(C#N)ncn1-2` [Compound 166], the Ki at α5β3γ2 GABAA receptors was < 99 nM.
Turning to `Cc1noc(-c2ncn3c2Cc2c(C)nnn2-c2cc(F)ccc2-3)n1` [Compound 110], the activation at 0.1 µM at GABAA receptors (α5β2γ2) was 20 to 49%.
Turning to `COCc1nnc2n1Cc1c(Br)ncn1-c1ccc(OC)cc1-2` [Compound 129], the Ki at α5β3γ2 GABAA receptors is < 99 nM.
With `CCOC(=O)c1ncn2c1Cc1c(Cc3ccc(Cl)cc3)nnn1-c1ccccc1-2` [Compound 47], the Ki on α5β3γ2 GABAA receptors was < 99 nM.
With `CCc1nc(-c2ncn3c2Cn2c(COc4ccccc4)nnc2-c2cc(F)ccc2-3)no1` [Compound 158], at GABAA receptors (α5β2γ2), the activation at 0.1 µM fell in the range of 20 to 49%. In addition, the Ki at α5β3γ2 GABAA receptors was < 99 nM.
`CC(C)OC(=O)c1ncn2c1Cn1c(COc3ccccc3)nnc1-c1cc(F)ccc1-2` [Compound 156]: at α5β3γ2 GABAA receptors, the Ki is < 99 nM.
As for `Cc1nc(-c2ncn3c2Cc2c(C)nnn2-c2ccccc2-3)no1` [Compound 127], the activation at 0.1 µM at GABAA receptors (α5β2γ2) was in the range of 20 to 49%. Further, the Ki at α5β3γ2 GABAA receptors is < 99 nM.
As for `Cc1nnn2c1Cc1c(-c3ncon3)ncn1-c1ccc(F)cc1-2` [Compound 151], the Ki on α5β3γ2 GABAA receptors is < 99 nM.
As for `CCOC(=O)c1ncn2c1Cn1c(COc3ccccc3)nnc1-c1cc(OC)ccc1-2` [Compound 55], at GABAA receptors (α5β2γ2), the activation at 0.1 µM was in the range of 20 to 49%. For the same molecule, the Ki on α5β3γ2 GABAA receptors is < 99 nM.
Regarding `Cc1nnn2c1Cc1c(-c3noc(C(C)C)n3)ncn1-c1ccccc1-2` [Compound 133], the Ki at α5β3γ2 GABAA receptors was < 99 nM.
On to `COc1ccc2c(c1)-c1nnc(COc3ccccc3Cl)n1Cc1c(-c3noc(C(C)C)n3)ncn1-2` [Compound 175], for which the activation at 0.1 µM at GABAA receptors (α5β2γ2) lay within 20 to 49%. Also, the Ki at α5β3γ2 GABAA receptors is < 99 nM.
`CCOC(=O)c1ncn2c1Cc1c(CN(C)Cc3ccccc3)nnn1-c1cc(OC)ccc1-2` [Compound 51]: at α5β3γ2 GABAA receptors, the Ki was < 99 nM.
On to `COc1ccc2c(c1)-c1nnc(COc3cccc4ccccc34)n1Cc1c(-c3noc(C(C)C)n3)ncn1-2` [Compound 177], for which the activation at 0.1 µM at GABAA receptors (α5β2γ2) is > 50%. Besides, the Ki on α5β3γ2 GABAA receptors was < 99 nM.
Consider `COc1ccc2c(c1)-c1nnc(COc3ccccc3)n1Cc1c(-c3noc(C)n3)ncn1-2` [Compound 162], for which, at GABAA receptors (α5β2γ2), the activation at 0.1 µM lay within 20 to 49%. The Ki on α5β3γ2 GABAA receptors was < 99 nM.
For the molecule `CCOC(=O)c1ncn2c1Cc1c(Cc3ccccc3)nnn1-c1cc(OC)ccc1-2` [Compound 4], the inhibition constant (Ki) on α5β3γ2 GABAA receptors was < 99 nM.
The same measure, in the same setting: the result for `Cc1nnn2c1Cc1c(C(=O)OC(C)C)ncn1-c1ccc(F)cc1-2` [Compound 112] reads < 99 nM.
Take `CCOC(=O)c1ncn2c1Cc1c(C)nnn1-c1cc(F)ccc1-2` [Compound 2]: the activation at 0.1 µM on GABAA receptors (α5β2γ2) is 20 to 49%. For the same molecule, the Ki at α5β3γ2 GABAA receptors is < 99 nM.
As for `COc1ccc2c(c1)-n1nnc(C)c1Cc1c(-c3nc(C)no3)ncn1-2` [Compound 167], the inhibitory constant (Ki) on α5β3γ2 GABAA receptors was < 99 nM.
Take `COc1ccc2c(c1)-c1nnc(COc3cccc(F)c3)n1Cc1c(-c3noc(C(C)C)n3)ncn1-2` [Compound 179]: the activation at 0.1 µM on GABAA receptors (α5β2γ2) is > 50%. Besides, the Ki on α5β3γ2 GABAA receptors was < 99 nM.
The like results for `COc1ccc2c(c1)-c1nnc(COc3ccc(F)cc3)n1Cc1c(-c3noc(C)n3)ncn1-2` [Compound 163] were, in that order, 20 to 49% and < 99 nM.
The like results for `CCOC(=O)c1ncn2c1Cc1c(COc3cccc(OC)c3)nnn1-c1cc(OC)ccc1-2` [Compound 11] were, in that order, 20 to 49% and < 99 nM.
Take `CCOC(=O)c1ncn2c1Cn1c(COc3ccc(F)cc3)nnc1-c1cc(OC)ccc1-2` [Compound 56]: the Ki at α5β3γ2 GABAA receptors was < 99 nM.
On the same count and under the same terms, the value for `CCOC(=O)c1ncn2c1Cc1c(Cc3ccc(C)cc3)nnn1-c1cc(F)ccc1-2` [Compound 44] was < 99 nM; that for `CCOC(=O)c1ncn2c1Cn1c(Oc3cccc(OC)c3)nnc1-c1cc(OC)ccc1-2` [Compound 105] was < 99 nM.
On the same count and under the same terms, the result for `COCc1nnc2n1Cc1c(-c3noc(C)n3)ncn1-c1ccc(OC)cc1-2` [Compound 164] reads < 99 nM; that for `CCOC(=O)c1ncn2c1Cc1c(COc3ccc(C)cc3C)nnn1-c1cc(OC)ccc1-2` [Compound 12], < 99 nM.
On the same count and under the same terms, the value for `CCOC(=O)c1ncn2c1Cc1c(C)cnn1-c1cc(OC)ccc1-2` [Compound 7] was < 99 nM.
On to `Fc1ccc2c(c1)-c1nnc(COc3ccccc3)n1Cc1c(-c3noc(C(F)(F)F)n3)ncn1-2` [Compound 159], for which the Ki on α5β3γ2 GABAA receptors was < 99 nM.
On the same count and under the same terms, the result for `CCOC(=O)c1ncn2c1Cc1c(C)nnn1-c1ccccc1-2` [Compound 3] reads < 99 nM; that for `CCOC(=O)c1ncn2c1Cc1c(COc3ccccc3)nnn1-c1cc(F)ccc1-2` [Compound 107], < 99 nM.
Still for that read-out and setting: the result for `COc1ccc2c(c1)-c1nnc(COc3ccccc3)n1Cc1c(C#N)ncn1-2` [Compound 122] reads < 99 nM; that for `CCOC(=O)c1ncn2c1Cn1c(COC)nnc1-c1cc(OC)ccc1-2` [Compound 103], < 99 nM.
Still for that read-out and setting: the result for `COc1ccc2c(c1)-n1nnc(COc3cccc(F)c3)c1Cc1c(-c3noc(C)n3)ncn1-2` [Compound 168] reads < 99 nM; that for `CCOC(=O)c1ncn2c1Cc1c(Cc3ccccc3)nnn1-c1cc(F)ccc1-2` [Compound 6], < 99 nM.
As for `CCOC(=O)c1ncn2c1Cc1c(Cc3ccccc3)cnn1-c1cc(OC)ccc1-2` [Compound 8], the Ki at α5β3γ2 GABAA receptors is < 99 nM.
The same measure, in the same setting: the value for `CCOC(=O)c1ncn2c1Cc1c(Cc3cccc(C#N)c3)nnn1-c1cc(OC)ccc1-2` [Compound 53] was < 99 nM; that for `CCOC(=O)c1ncn2c1Cn1c(Br)nnc1-c1cc(OC)ccc1-2` [Compound 106] was < 99 nM.
On to `CCOC(=O)c1ncn2c1Cc1c(Cc3ccccc3)nnn1-c1ccccc1-2` [Compound 5], for which the Ki at α5β3γ2 GABAA receptors was < 99 nM.
With `COCc1nnc2n1Cc1c(-c3noc(C(C)C)n3)ncn1-c1ccc(OC)cc1-2` [Compound 169], at α5β3γ2 GABAA receptors, the Ki was < 99 nM.
The same measure, in the same setting: the value for `CCOC(=O)c1ncn2c1Cc1c(Cc3ccccc3Cl)nnn1-c1cc(OC)ccc1-2` [Compound 108] was < 99 nM; that for `C#Cc1ncn2c1Cc1c(C)nnn1-c1ccccc1-2` [Compound 161] was < 99 nM.
On the same count and under the same terms, the value for `CCOC(=O)c1ncn2c1Cc1c(COc3ccc(F)cc3)nnn1-c1cc(OC)ccc1-2` [Compound 10] was < 99 nM.
In the case of `CCOC(=O)c1ncn2c1Cn1c(Oc3ccccc3)nnc1-c1cc(OC)ccc1-2` [Compound 104], the inhibitory constant (Ki) at α5β3γ2 GABAA receptors is < 99 nM.
In the case of `CCOC(=O)c1ncn2c1Cc1c(Cc3cccc(Cl)c3)nnn1-c1cc(OC)ccc1-2` [Compound 52], the Ki at α5β3γ2 GABAA receptors is < 99 nM.
Same read-out and setting: the value for `CCOC(=O)c1ncn2c1Cc1c(CN3CCOCC3)nnn1-c1cc(OC)ccc1-2` [Compound 49] was < 99 nM.

(Values after patent US11142529B2 (priority 2013, dated 2021).)
